Data taken from ChEMBL document CHEMBL4765295, “Synthesis, pharmacological profile and 2D-QSAR studies of curcumin-amino acid conjugates as potential drug candidates” (Eur J Med Chem, 2020).
Values joined by “and” are separate entries in the source; they are usually repeats but may differ in a detail not shown here. Equal values may be shown once.

Test system: Mus musculus
Test: Analgesic activity in albino mouse assessed protection against acetic acid-induced abdominal writhing at 10 mg/kg, ip pretreated for 1 hr followed by acetic acid challenge and measured starting 5 mins post acetic acid challenge for 10 mins relative to control (reference value: 0 %)
Format: functional
Conditions: time 75 min, 1.25 h

| SMILES | Activity [%] |
| --- | --- |
| COc1cc(/C=C/C(=O)/C=C(O)/C=C/c2ccc(OC(=O)[C@@H](C)N)c(OC)c2)ccc1OC(=O)[C@@H](C)N.Cl.Cl | 67.5 |

Test system: Mus musculus
Test: Analgesic activity in albino mouse assessed protection against acetic acid-induced abdominal writhing at 10 mg/kg, ip pretreated for 1 hr followed by acetic acid challenge and measured starting 5 mins post acetic acid challenge for 10 mins relative to indomethacin
Format: functional
Conditions: time 75 min, 1.25 h

| SMILES | Activity [%] |
| --- | --- |
| COc1cc(/C=C/C(=O)/C=C(O)/C=C/c2ccc(OC(=O)[C@@H](C)N)c(OC)c2)ccc1OC(=O)[C@@H](C)N.Cl.Cl | 109.6 |

Test system: Mus musculus
Test: Analgesic activity in albino mouse assessed as forepaw licking/jumping latency time at 10 mg/kg, ip measured after 30 mins by hot plate test (reference value: 5.02 +/- 0.09 sec)
Format: functional
Conditions: 0.5 h

| SMILES | Time [s] |
| --- | --- |
| COc1cc(/C=C/C(=O)/C=C(O)/C=C/c2ccc(OC(=O)[C@@H](C)N)c(OC)c2)ccc1OC(=O)[C@@H](C)N.Cl.Cl | 5.3 |

Test system: Mus musculus
Test: Analgesic activity in albino mouse assessed as protection at 10 mg/kg, ip measured after 30 mins by hot plate test (reference value: 0 %)
Format: functional
Conditions: 0.5 h

| SMILES | Activity [%] |
| --- | --- |
| COc1cc(/C=C/C(=O)/C=C(O)/C=C/c2ccc(OC(=O)[C@@H](C)N)c(OC)c2)ccc1OC(=O)[C@@H](C)N.Cl.Cl | 5.6 |

Test system: Mus musculus
Test: Analgesic activity in albino mouse assessed as forepaw licking/jumping latency time at 10 mg/kg, ip measured after 60 mins by hot plate test (reference value: 3.42 +/- 0.03 sec)
Format: functional
Conditions: 1 h

| SMILES | Time [s] |
| --- | --- |
| COc1cc(/C=C/C(=O)/C=C(O)/C=C/c2ccc(OC(=O)[C@@H](C)N)c(OC)c2)ccc1OC(=O)[C@@H](C)N.Cl.Cl | 5.82 |

Test system: Mus musculus
Test: Analgesic activity in albino mouse assessed as protection at 10 mg/kg, ip measured after 60 mins by hot plate test (reference value: 0 %)
Format: functional
Conditions: 1 h

| SMILES | Activity [%] |
| --- | --- |
| COc1cc(/C=C/C(=O)/C=C(O)/C=C/c2ccc(OC(=O)[C@@H](C)N)c(OC)c2)ccc1OC(=O)[C@@H](C)N.Cl.Cl | 70.2 |

Test system: Mus musculus
Test: Analgesic activity in albino mouse assessed as forepaw licking/jumping latency time at 10 mg/kg, ip measured after 90 mins by hot plate test (reference value: 2.72 +/- 0.01 sec)
Format: functional
Conditions: 1.5 h

| SMILES | Time [s] |
| --- | --- |
| COc1cc(/C=C/C(=O)/C=C(O)/C=C/c2ccc(OC(=O)[C@@H](C)N)c(OC)c2)ccc1OC(=O)[C@@H](C)N.Cl.Cl | 4.72 |

Test system: Mus musculus
Test: Analgesic activity in albino mouse assessed as protection at 10 mg/kg, ip measured after 90 mins by hot plate test (reference value: 0 %)
Format: functional
Conditions: 1.5 h

| SMILES | Activity [%] |
| --- | --- |
| COc1cc(/C=C/C(=O)/C=C(O)/C=C/c2ccc(OC(=O)[C@@H](C)N)c(OC)c2)ccc1OC(=O)[C@@H](C)N.Cl.Cl | 73.5 |

Test system: Mus musculus
Test: Analgesic activity in albino mouse assessed as forepaw licking/jumping latency time at 10 mg/kg, ip measured after 120 mins by hot plate test (reference value: 2.62 +/- 0.06 sec)
Format: functional
Conditions: 2 h

| SMILES | Time [s] |
| --- | --- |
| COc1cc(/C=C/C(=O)/C=C(O)/C=C/c2ccc(OC(=O)[C@@H](C)N)c(OC)c2)ccc1OC(=O)[C@@H](C)N.Cl.Cl | 4.02 |

Test system: Mus musculus
Test: Analgesic activity in albino mouse assessed as protection at 10 mg/kg, ip measured after 120 mins by hot plate test (reference value: 0 %)
Format: functional
Conditions: 2 h

| SMILES | Activity [%] |
| --- | --- |
| COc1cc(/C=C/C(=O)/C=C(O)/C=C/c2ccc(OC(=O)[C@@H](C)N)c(OC)c2)ccc1OC(=O)[C@@H](C)N.Cl.Cl | 53.4 |

Test system: Mus musculus
Test: Analgesic activity in albino mouse assessed as protection at 10 mg/kg, ip measured after 120 mins by hot plate test relative to indomethacin
Format: functional
Conditions: 2 h

| SMILES | Activity [%] |
| --- | --- |
| COc1cc(/C=C/C(=O)/C=C(O)/C=C/c2ccc(OC(=O)[C@@H](C)N)c(OC)c2)ccc1OC(=O)[C@@H](C)N.Cl.Cl | 127.1 |

Test system: Staphylococcus aureus
Test: Antibacterial activity against Staphylococcus aureus ATCC 25923 incubated for 18 hrs by agar dilution method
Format: functional
Conditions: not given

| MIC | SMILES |
| --- | --- |
| 0.125 µg/mL and 0.214 µM | COc1cc(/C=C/C(=O)/C=C(O)/C=C/c2ccc(OC(=O)[C@@H](C)N)c(OC)c2)ccc1OC(=O)[C@@H](C)N.Cl.Cl |

Test system: Streptococcus pyogenes
Test: Antibacterial activity against Streptococcus pyogenes ATCC 19615 incubated for 18 hrs by agar dilution method
Format: functional
Conditions: not given

| MIC | SMILES |
| --- | --- |
| 0.25 µg/mL and 0.428 µM | COc1cc(/C=C/C(=O)/C=C(O)/C=C/c2ccc(OC(=O)[C@@H](C)N)c(OC)c2)ccc1OC(=O)[C@@H](C)N.Cl.Cl |

Test system: Salmonella typhimurium
Test: Antibacterial activity against Salmonella typhimurium ATCC 19430 incubated for 18 hrs by agar dilution assay
Format: functional, Salmonella enterica subsp. enterica serovar Typhimurium
Conditions: Salmonella enterica

| MIC | SMILES |
| --- | --- |
| 0.25 µg/mL and 0.428 µM | COc1cc(/C=C/C(=O)/C=C(O)/C=C/c2ccc(OC(=O)[C@@H](C)N)c(OC)c2)ccc1OC(=O)[C@@H](C)N.Cl.Cl |

Test system: Pseudomonas aeruginosa
Test: Antibacterial activity against Pseudomonas aeruginosa ATCC 27853 incubated for 18 hrs by agar dilution assay
Format: functional
Conditions: not given

| MIC | SMILES |
| --- | --- |
| 1 µg/mL and 1.71 µM | COc1cc(/C=C/C(=O)/C=C(O)/C=C/c2ccc(OC(=O)[C@@H](C)N)c(OC)c2)ccc1OC(=O)[C@@H](C)N.Cl.Cl |

Test system: Candida albicans
Test: Antifungal activity against Candida albicans incubated for 18 to 24 hrs by CLSI method
Format: functional
Conditions: time 18-24 hrs

| MIC | SMILES |
| --- | --- |
| 0.125 µg/mL and 0.214 µM | COc1cc(/C=C/C(=O)/C=C(O)/C=C/c2ccc(OC(=O)[C@@H](C)N)c(OC)c2)ccc1OC(=O)[C@@H](C)N.Cl.Cl |

Test system: A549
Test: Antiproliferative activity against human A549 cells assessed as inhibition of cell growth after 72 hrs by MTT assay
Format: functional, cell-based
Conditions: A549, 72 h

| IC50 [µM] | SMILES |
| --- | --- |
| 30.9 | COc1cc(/C=C/C(=O)/C=C(O)/C=C/c2ccc(OC(=O)[C@@H](C)N)c(OC)c2)ccc1OC(=O)[C@@H](C)N.Cl.Cl |

Test system: MCF7
Test: Antiproliferative activity against human MCF7 cells assessed as inhibition of cell growth after 72 hrs by MTT assay
Format: functional, cell-based
Conditions: MCF7, 72 h

| IC50 [µM] | SMILES |
| --- | --- |
| 10.4 | COc1cc(/C=C/C(=O)/C=C(O)/C=C/c2ccc(OC(=O)[C@@H](C)N)c(OC)c2)ccc1OC(=O)[C@@H](C)N.Cl.Cl |

Test system: PC-3
Test: Antiproliferative activity against human PC3 cells assessed as inhibition of cell growth after 72 hrs by MTT assay
Format: functional, cell-based
Conditions: PC-3, 72 h

| IC50 [µM] | SMILES |
| --- | --- |
| 30.7 | COc1cc(/C=C/C(=O)/C=C(O)/C=C/c2ccc(OC(=O)[C@@H](C)N)c(OC)c2)ccc1OC(=O)[C@@H](C)N.Cl.Cl |

Test system: not listed separately
Test: Toxicity in albino mouse assessed as induction of toxic symptoms at 50 to 100 mg/kg, ip measured after 24 hrs
Format: organism-based
Conditions: in vivo, dose 50-100 mg/kg

| SMILES | Activity |
| --- | --- |
| COc1cc(/C=C/C(=O)/C=C(O)/C=C/c2ccc(OC(=O)[C@@H](C)N)c(OC)c2)ccc1OC(=O)[C@@H](C)N.Cl.Cl | Non-Toxic |
